Experiment [1] has as its system interleukin-1 beta (II-1β). The experiment can be described thus: Il-1β mRNA expression (RT-qPCR) in LPS-activated RAW 264.7 macrophages. Format: cell-based, murine. The settings on record: for reduction of IL-1β mRNA expression: 1.0 mg/L alone; for reduction of IL-1β mRNA expression, alone at same molarity: around 3.4 μM (1.0 mg/L quercetin, 0.974 mg/L luteolin).
Method: RAW 264.7 murine macrophage cell line was purchased from American Type Culture Collection (ATCC-TIB71). Cells were cultured in high glucose Dulbecco's Modified Eagle Medium (DMEM) supplemented with stable glutamine (0.0584%) and sodium pyruvate (0.011%), 10% (v/v) heat-inactivated fetal bovine serum, and 1% (v/v) penicillin/streptomycin mix. Cells were maintained in an incubator at 37° C. with 5% CO2, and the medium was changed every two days. All assays were conducted in cells between the 3rd and the 15th passage. All treatments with PEA and other polyphenols were solubilized in dimethyl sulfoxide (DMSO) and further diluted in complete culture media immediately before use. LPS (10 ng mL-1) was used to induce inflammation in RAW 264.7 cultures.
Murine RAW 264.7 macrophage cells (1×10^5 cells per well) were seeded in 12-well plates and incubated for 24 hours. Cells were pre-treated with Palmitoylethanolamide (PEA) and other compounds of interest for 1 hour and then lipopolysaccharide (LPS), a major activating agent of macrophages, was added for a final concentration of 10 ng·mL-1. Cells were then incubated for 8 hours. Negative control (culture media only) and positive (LPS) controls, as well as a Vehicle (DMSO at a maximal concentration of 0.2%)+LPS were also performed. Total RNA was extracted and purified using an RNeasy mini kit (QIAGEN, Venlo, Netherlands) according to the manufacturer's protocol. mRNA quality and quantification were assessed with NanoDrop® ND-1000 (NanoDrop Technologies, Wilmington, Del., USA). cDNA synthesis was performed with the iScript Reverse Transcription Supermix (Bio-Rad Laboratories, Hercules, Calif., USA) according to the manufacturer's protocol. RT-qPCR reactions were performed using iTaq Universal Probes Supermix (Bio-Rad Laboratories, Hercules, Calif., USA). mRNA expression cyclooxygenase-2 (Cox-2) and interleukin-1 beta (II-1β) were analyzed using beta-actin (Actb) as a reference gene. The levels of transcripts were calculated relative to the control group by the 2-ΔΔCt method.
(§1) All data were analyzed by one-way analysis of variance (ANOVA) with Dunnet's or Sidak's posttest using GraphPad Prism 6.0 (GraphPad Software, La Jolla, Calif., USA).
In another experiment the test system is cyclooxygenase-2 (Cox-2). The experiment can be described thus: Cox-2 mRNA expression (RT-qPCR) in LPS-activated RAW 264.7 macrophages. The conditions noted are these: LPS 10 ng/mL; for downregulation of Cox-2 mRNA expression, compound alone: 9 h. The format is cell-based, murine. Background: Quantitative PCR measures a nucleic acid by following its amplification.

Method for cyclooxygenase-2 (Cox-2): Cells were maintained in an incubator at 37° C. with 5% CO2, and the medium was changed every two days. All assays were conducted in cells between the 3rd and the 15th passage. All treatments with PEA and other polyphenols were solubilized in dimethyl sulfoxide (DMSO) and further diluted in complete culture media immediately before use.
Cells were pre-treated with Palmitoylethanolamide (PEA) and other compounds of interest for 1 hour and then lipopolysaccharide (LPS), a major activating agent of macrophages, was added for a final concentration of 10 ng·mL-1. Cells were then incubated for 8 hours. Negative control (culture media only) and positive (LPS) controls, as well as a Vehicle (DMSO at a maximal concentration of 0.2%)+LPS were also performed. Total RNA was extracted and purified using an RNeasy mini kit (QIAGEN, Venlo, Netherlands) according to the manufacturer's protocol. mRNA quality and quantification were assessed with NanoDrop® ND-1000 (NanoDrop Technologies, Wilmington, Del., USA). cDNA synthesis was performed with the iScript Reverse Transcription Supermix (Bio-Rad Laboratories, Hercules, Calif., USA) according to the manufacturer's protocol. RT-qPCR reactions were performed using iTaq Universal Probes Supermix (Bio-Rad Laboratories, Hercules, Calif., USA). mRNA expression cyclooxygenase-2 (Cox-2) and interleukin-1 beta (II-1β) were analyzed using beta-actin (Actb) as a reference gene. The levels of transcripts were calculated relative to the control group by the 2-ΔΔCt method.
as §1

On to `O=c1c(O)c(-c2ccc(O)c(O)c2)oc2cc(O)cc(O)c12` [quercetin], for which the “reduction of IL-1β mRNA expression” value in experiment [1] (LPS 10 ng/mL) is “around 45%”. In addition, the “reduction of IL-1β mRNA expression, alone at same molarity” value in experiment [1] (alone, 9 h) is given as 78%. For the same compound, the “lowest effective concentration of compound alone (II-1β expression)” value (from here on “lowest effective concentration”) in experiment [1] (LPS 10 ng/mL, 9 h) stood at 1.0 mg/L.

For `CC(C)Cc1ccc(C(C)C(=O)O)cc1` (centres unmarked) [ibuprofen], the “inflammatory state of the cells (II-1β and Cox-2 expression, screening)” value in experiment [1] (tested concentration, LPS 10 ng/mL, 9 h) was “did not improve the inflammatory state of the cells”.

For the compound `O=c1cc(-c2ccc(O)c(O)c2)oc2cc(O)cc(O)c12` [luteolin], in experiment [1] (alone, 9 h), the “reduction of IL-1β mRNA expression, alone at same molarity” value was 50%.

For the compound `COc1cc(CNC(=O)CCCC/C=C/C(C)C)ccc1O` [capsaicin], the “expression of IL-1β, compound alone (screening)” value in experiment [1] (alone, LPS 10 ng/mL, 9 h) is given as “significant reduction”. Besides, the “expression of IL-1β, in combination with PEA (screening)” value in experiment [1] (in combination with PEA, LPS 10 ng/mL, 9 h) is listed as “significant reduction”.

With `Oc1ccc(C=Cc2cc(O)cc(O)c2)cc1` [resveratrol], the “downregulation of II-1β mRNA expression, compound alone” value in experiment [1] (alone, LPS 10 ng/mL, 9 h) is “did not reduce”; in experiment [1] (alone, LPS 10 ng/mL, 9 h, listed as Resveratrol), “no downregulation”. Besides, the “downregulation of Cox-2 mRNA expression, compound alone” value in the experiment on cyclooxygenase-2 (Cox-2) is recorded as “did not reduce”; in the experiment with cyclooxygenase-2 (Cox-2) (listed as Resveratrol), “no downregulation”.

Turning to `COc1cc(/C=C/C(=O)CC(=O)/C=C/c2ccc(O)c(OC)c2)ccc1O` [curcumin], the “reduction of IL-1β mRNA expression” value in experiment [1] (LPS 10 ng/mL) was ~57%. In addition, the “lowest effective concentration” value in experiment [1] (LPS 10 ng/mL, 9 h) was 1.0 mg/L.

`CCCCCCCCCCCCCCCC(=O)NCCO` [PEA, N-(2-Hydroxyethyl)hexadecanamide]: the “reduction of II-1β expression” value in experiment [1] (0.5 mg/L alone, LPS 10 ng/mL) is given as 28%. The “expression of the inflammatory cytokine II-1β” value in experiment [1] (PEA 2.0 mg/L, after 1.0-10 ng/mL LPS) is listed as “significantly decrease”. Moreover, the “lowest effective concentration” value in experiment [1] (LPS 10 ng/mL, 9 h) is on record as 0.5 mg/L. In addition, the “expression of Cox-2” value with cyclooxygenase-2 (Cox-2) (PEA 2.0 mg/L) was “significantly decrease”.

Values taken from patent US11523998B2, “Anti-inflammatory formulations and uses thereof including a combination of palmitoylethanolamide and plant-based polyphenols” (The Texas A&M University System, priority 2018, dated 2022).
